Source: article PMC5915154, “Aloe-emodin as drug candidate for cancer therapy” (Oncotarget, 2018)

Columns and labels:
U87.MGΔEGFR cells = assay: Resazurin reduction assay, U87.MGΔEGFR; assay type: cell-based; conditions: Homo sapiens, 72 h
Source text: (§1) The cell lines used in the present work, their origins and maintenance conditions were previously reported. In brief, drug-sensitive CCRF-CEM and multidrug resistant P-glycoprotein-over-expressing CEM/ADR5000 leukemia cells, MDA-MB-231-pcDNA3 breast cancer cells and their transfectant subline MDA-MB-231-BCRP clone 23, HCT116 (p53^+/+) colon cancer cells and its knockout clone HCT116 (p53^-/-), U87.MG glioblastoma multiform cells and their transfectant subline U87.MGΔEGFR as well as HEK293 human embryonic kidney cells transfected with or without a cDNA for ABCB5 were used. The human peripheral mononuclear cells (PMNC) were isolated from fresh blood samples of a healthy donor by using Histopaque® (Sigma-Aldrich, Taufkirchen, Germany).
(§2) Resazurin reduction assay was conducted to test the cytotoxicity of the compounds. This assay is based on the reduction of resazurin to resorufin by viable cells. […] Briefly, aliquots of 0.5×10^4 adherent cells which were allowed to attach overnight and 1×10^4 suspension cells per well were seeded in 96-well-plates with or without the addition of varying concentrations of the test substance to get a total volume of 200 μL/well. After 72 h incubation and addition of resazurin (Sigma-Aldrich) for 4 h, staining was measured by an Infinite M2000 ProTM plate reader (Tecan, Germany) using an excitation wavelength of 544 nm and an emission wavelength of 590 nm. […]

CCRF-CEM cells [1] = assay: Mitochondrial membrane potential (JC-1, flow cytometry); assay type: cell-based, human; conditions: CCRF-CEM, 2- and 4-fold IC50, 24 and 48 h
Source text: The JC-1 Mitochondrial Membrane Potential Assay Kit (Cayman Chemical, Ann Arbor, MI, USA) was applied for the detection of MMP by flow cytometry according to the manufacturer’s instructions. The cationic dye, 5, 5’, 6, 6’- tetrachloro- 1, 1’, 3, 3’- tetraethylbenzimidazolylcarbocyanine iodide (JC-1) enters the mitochondria and changes its fluorescent properties based on the aggregation of the probe. In healthy cells having high MMP, JC-1 forms complexes known as J-aggregates with intense red fluorescence. On the other hand, in cells with low MMP, JC-1 remains in its monomeric form showing green fluorescence. […] A LSR-Fortessa FACS analyzer (Becton–Dickinson) was used to detect the J-aggregate form of JC-1 with an excitation wavelength of 535 ± 20 nm and an emission wavelength of 590 ± 20 nm as well as the monomeric form of JC-1 at excitation and emission wavelengths of 485 and 535 nm, respectively. The results were analyzed by the FlowJo software (Celeza, Olten, Switzerland). 2×10^4 cells were counted for each experiment which were repeated in triplicate.

[2] = system: U87.MG glioblastoma cells; assay: Resazurin reduction assay, U87.MG; assay type: cell-based; conditions: Homo sapiens, U-87 MG, 72 h
Source text: as §1, §2

[3] = system: MDA-MB-231-BCRP clone 23 cells; assay: Resazurin reduction assay, MDA-MB-231-BCRP clone 23; assay type: cell-based; conditions: Homo sapiens; MDA-MB-231-BCRP clone 23, resazurin assay, 72 h
Source text: as §1, §2

CCRF-CEM cells [4] = assay: Annexin V/PI detection of apoptosis and necrosis; assay type: cell-based, human
Source text: A commercial annexin V/PI detection apoptosis kit was used to detect early apoptosis and necrosis according to the manufacturer’s instructions (Life Technologies, Carlsbad, CA, USA). Annexin V is a calcium-dependent phospholipid-binding protein, which binds to phosphatidylserine (PS). PS is predominantly located at the inner side of the plasma membrane under normal conditions and moves to outer surface of the membrane upon the onset of early apoptosis. This can be detected FITC-labeled annexin V. PI is a marker of late apoptosis and necrosis. We treated aliquots of 1×10^6 CCRF-CEM cells with 0.5-, 1-, 2- and 4-fold IC50 of Aloe-emodin for 48, 72 or 96 h, respectively. After washing the cells with PBS, they were stained with annexin V/FITC at room temperature for 10-15 min. Subsequently, cells were washed again and stained with PI in the dark. Then, the results were analyzed by a BD Accuri™ C6 flow cytometer at excitation wavelength 488 nm and emission wavelength 530 nm to record annexin V/FITC signals. The fluorescence of PI was detected at 488 nm excitation and was measured by a 610/20 nm band pass filter. At least three independent experiments were performed..

[5] = system: drug-sensitive CCRF-CEM leukemia cells; assay: Resazurin reduction assay, CCRF-CEM; assay type: cell-based; conditions: Homo sapiens, 72 h
Source text: as §1
Resazurin reduction assay was conducted to test the cytotoxicity of the compounds. This assay is based on the reduction of resazurin to resorufin by viable cells. […] Briefly, aliquots of 0.5×10^4 adherent cells which were allowed to attach overnight and 1×10^4 suspension cells per well were seeded in 96-well-plates with or without the addition of varying concentrations of the test substance to get a total volume of 200 μL/well. After 72 h incubation and addition of resazurin (Sigma-Aldrich) for 4 h, staining was measured by an Infinite M2000 ProTM plate reader (Tecan, Germany) using an excitation wavelength of 544 nm and an emission wavelength of 590 nm. Each assay was independently performed for at least three times, with six parallel replicates each. The protocol has been recently reported. Fifty percent inhibition concentrations (IC50) represent the drug concentrations required to inhibit 50% of cell proliferation, which were fitted with nonlinear regression using GraphPad® Prism7.

[6] = system: Human peripheral mononuclear cells (PMNC); assay: Toxicity in normal cells, resazurin assay; assay type: cell-based; conditions: PMNC of a healthy donor, all concentrations tested 0.001-100 μM
Method: We also investigated Aloe-emodin’s toxicity towards normal cells. Human peripheral mononuclear cells (PMNC) were isolated from fresh blood samples of a healthy donor and tested against various concentrations of Aloe-emodin ranging from 0.001-100 μM.
Normal human peripheral mononuclear cells (PMNC) were isolated from fresh blood samples of a healthy donor using Histopaque® (Sigma-Aldrich). In brief, 6 mL blood were layered with 6 mL Histopaque® and centrifuged (400 × g) for 30 min at 4°C. The opaque interface containing lymphocytes and other mononuclear cells was transferred into a new tube and washed several times. Isolated PMNCs were kept in Panserin 413 medium (PAN-Biotech, Aidenbach, Germany) supplemented with 2 % phytohemagglutinin M (PHA-M, Life Technologies, Darmstadt, Germany).
Resazurin reduction assay was conducted to test the cytotoxicity of the compounds. This assay is based on the reduction of resazurin to resorufin by viable cells. […] After 72 h incubation and addition of resazurin (Sigma-Aldrich) for 4 h, staining was measured by an Infinite M2000 ProTM plate reader (Tecan, Germany) using an excitation wavelength of 544 nm and an emission wavelength of 590 nm. […]

[7] = system: MDA-MB-231-pcDNA breast cancer cells; assay: Resazurin reduction assay, MDA-MB-231-pcDNA; assay type: cell-based; conditions: Homo sapiens, 72 h
Source text: as §1, §2

- IC50 (U87.MGΔEGFR cells): 33.8 µM
- IC50 [2]: 21.7 µM
- IC50 [3]: 26.9 µM
- IC50 [5]: 9.87 µM
- IC50 [7]: 22.3 µM
Compound: O=C1c2cccc(O)c2C(=O)c2c(O)cc(CO)cc21 [Aloe-emodin]
- MMP depolarization (JC-1 fluorescence) (CCRF-CEM cells [1]): shift from red to green fluorescence
- apoptotic or necrotic cell death (CCRF-CEM cells [4]; 2- or 4-fold IC50, 96 h): early and late apoptosis as well as early and late necrosis
- apoptotic or necrotic cell death (CCRF-CEM cells [4]; 4-fold IC50, 72 h): early and late apoptosis as well as early and late necrosis
- cytotoxic activity towards normal cells [6]: did not show cytotoxic activity
